Where two headings read alike, the source gives them in different places.
How the values were obtained:
CB1 receptor = target: T1, CB1 receptor (Rattus norvegicus, UniProt P20272); assay: Radioligand binding assay ([3H]CP-55,940 displacement), rat forebrain membranes as source of CB1
T1 construct: using rat forebrain membranes as a source of CB1; from tissue; host or cells: rat forebrain (whole brain minus cerebral cortex) membranes
Protocol: The binding affinities of the novel compounds described in this invention for the central cannabinoid receptor was assessed using rat forebrain membranes as a source of CB1. Membranes were prepared as described by the method of Dodd et al., Brain Res. 226:107 (1981), the entire teachings of which are incorporated herein by reference. Rat whole brains minus the cerebral cortex were diced with a razor blade and homogenized in 0.32 M sucrose, pH 7.4. The resulting suspension was spun at 400×g at 4° C. The supernatant was decanted and layered over 1.2 M sucrose in TME buffer (25 mM Tris base, 5 mM MgCl2 1 mMEDTA, pH 7.4) and spun at 109,000×g. The interface containing plasma membrane protein was collected, pooled and layered over 0.8 M sucrose in TME, pH 7.4. The pellet was carefully resuspended in TME, pH 7.4 and the total protein content was assayed by the method of Markwell et al., Anal. Biochem. 87:206 (1978), the entire teachings of which are incorporated herein by reference. Protein was aliquotted, frozen under liquid nitrogen and stored at −80° C. until use.
(§1) Approximately 30 μg of tissue was incubated in silanized 96 well microtiter plate with TME containing 0.1% essentially fatty acid free bovine serum albumin (BSA), 0.8 nM CH^3]CP-55,940 and various concentrations of the test compound in a final volume of 200 μL. Assays were incubated at 30° C. for 1 hour. The samples were filtered using Packard Filtermate 196 and Whatman GF/C Filterplates and washed with wash buffer (TME) containing 0.5% BSA. Radioactivity was detected using MicroScint 20 scintillation cocktail added directly to the dried filterplates, and the filterplates were counted using a Packard Instruments Top-Count. Nonspecific binding was assessed using 100 nM CP-55,940. Data collected from three independent experiments performed with duplicate determinations were normalized between 100% and 0% specific binding for [H^3]CP-55,940, determined using buffer and 100 nM CP-55,940. The normalized data was analyzed using a 4 parameter nonlinear logistic equation to yield IC50 values. Data from at least two independent experiments performed in duplicate were used to calculate IC50 values which were convered to Ki values using the assumptions of Cheng and Prusoff, Biochem. Pharmacol., 22:3099 (1973), the entire teachings of which are incorporated herein by reference.

CB2 receptor = target: T2, CB2 receptor (Mus musculus, UniProt P47936); assay: Radioligand binding assay ([3H]CP-55,940 displacement), mouse spleen as source of CB2; details: for selectivity for the CB2 receptor: CB2 over CB1, statement in words
T2 construct: Mouse spleen was used a source of CB2 receptors; from tissue; host or cells: mouse spleen
Protocol: as §1
Mouse spleen was used a source of CB2 receptors to assess binding affinity of analogs described in this invention. The CB2 binding assay was conducted in the same manner as for CB1. Silanized centrifuge tubes were used throughout to minimize receptor loss due to adsorption.

[1] = rat forebrain membranes, 0.8 nM [3H]CP-55,940, Ki from IC50 by Cheng and Prusoff, read-out: Ki in nM for the CB1 Receptor
[2] = Ki in nM for the CB1 Receptor, rat forebrain membranes, 0.8 nM [3H]CP-55,940, Ki from IC50 by Cheng and Prusoff
[3] = Ki for the CB2 receptor, refers to Example 2
[4] = Ki in nM for the CB2 Receptor, mouse spleen, [3H]CP-55,940, Ki from IC50 by Cheng and Prusoff
[5] = Ki for the CB1 receptor, refers to Example 2

T2 sequence (P47936 whole entry): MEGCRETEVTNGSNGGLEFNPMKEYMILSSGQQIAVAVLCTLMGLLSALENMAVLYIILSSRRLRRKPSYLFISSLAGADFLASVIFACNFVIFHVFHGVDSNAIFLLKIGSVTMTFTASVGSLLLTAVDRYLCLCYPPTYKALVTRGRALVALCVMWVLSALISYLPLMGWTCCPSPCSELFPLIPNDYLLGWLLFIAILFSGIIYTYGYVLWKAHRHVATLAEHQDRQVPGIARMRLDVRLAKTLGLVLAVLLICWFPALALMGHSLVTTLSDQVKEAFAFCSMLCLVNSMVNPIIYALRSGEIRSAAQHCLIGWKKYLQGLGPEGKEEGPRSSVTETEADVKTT
T1 sequence (P20272 whole entry): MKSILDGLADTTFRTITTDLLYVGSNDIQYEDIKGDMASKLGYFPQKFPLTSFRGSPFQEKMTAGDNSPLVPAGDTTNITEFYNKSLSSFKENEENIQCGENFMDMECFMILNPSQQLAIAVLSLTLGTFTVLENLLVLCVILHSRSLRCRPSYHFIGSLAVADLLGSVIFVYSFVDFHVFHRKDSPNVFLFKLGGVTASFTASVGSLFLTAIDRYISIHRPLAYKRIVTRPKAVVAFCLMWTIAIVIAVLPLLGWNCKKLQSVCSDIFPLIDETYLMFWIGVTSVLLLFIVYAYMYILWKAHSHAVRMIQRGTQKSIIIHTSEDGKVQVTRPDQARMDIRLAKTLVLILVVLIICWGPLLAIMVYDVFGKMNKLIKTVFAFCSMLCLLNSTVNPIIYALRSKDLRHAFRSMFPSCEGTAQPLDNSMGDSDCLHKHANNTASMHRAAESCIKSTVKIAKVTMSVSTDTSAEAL

Structure (SMILES) | Ki (CB1 receptor; [1]) | Ki (CB1 receptor; [2]) | selectivity for the CB2 receptor (CB2 receptor) | Ki (CB2 receptor; [3]) | Ki (CB2 receptor; [4]) | Ki (CB1 receptor; [5]) | also measured
CC1=CC[C@@H]2[C@@H](C1)c1c(O)cc(C34CC5CC(CC(C5)C3)C4)cc1OC2(C)C [AM411] | 6.9 nM |  |  |  |  |  | selectivity for the CB1 receptor (CB1 receptor; CB1 over CB2, statement in words): selective agonists; Ki (CB2 receptor; mouse spleen, [3H]CP-55,940, Ki from IC50 by Cheng and Prusoff, read-out: Ki in nM for the CB2 Receptor): 52 nM
CC1=CC[C@@H]2[C@@H](C1)c1c(O)cc(C3CC4CCC3(C)C4(C)C)cc1OC2(C)C (stereo partly shown) [AM731] |  | 60.6 nM | selective agonists | < 10 nM | 6.1 nM |  | 
CC1=CC[C@@H]2[C@@H](C1)c1c(O)cc(C3CC4CCC3(C)C4(C)C)cc1OC2(C)C (stereo partly shown) [AM732] |  | 20.1 nM | selective agonists |  | 2 nM |  | 
CCCCCCC1(c2cc(O)c3c(c2)OC(C)(C)[C@@H]2CC=C(C)C[C@@H]32)SCCS1 [AMG3] | 0.32 nM |  |  |  | 1.7 nM | < 1 nM | 
CCCCCCC1(c2cc(O)c3c(c2)OC(C)(C)[C@@H]2CC=C(C)C[C@@H]32)OCCO1 [AMG14] |  | 0.2 nM |  |  |  | < 1 nM | 
CCCCCc1cc(O)c2c(c1)OC(C)(C)[C@@H]1CC=C(C)C[C@@H]21 [Δ^8-tetrahydrocannabinol, reference compound] |  |  |  | 14 nM |  |  | 

Reference: US20050239874A1, “Novel analgesic and immunomodulatory cannabinoids” (University of Connecticut, priority 1998, published 2005)
